In US20240425475A1, “COMPOUND BASED ON QUINAZOLINE-SUBSTITUTED GLUTARIMIDE SKELETON AND USE THEREOF” (GLUETACS THERAPEUTICS (SHANGHAI) CO., LTD., priority 2022, published 2024):

Assays:
[1] = test system: Human diffuse large B-cell lymphoma cell line: TMD8; test: Half inhibitory concentration (IC50) against tumor cells, CCK-8 cell viability; format: cell-based; conditions: 96 h treatment
Description: The tumor cells used herein were cultured in a cell culture medium listed in table 2 at 37° C. in an incubator with 5% CO2. Prior to experimentation, all cells used were correctly identified by STR profiling, and tested negative for mycoplasma through routine screenings. [table] Determination of Half Inhibitory Concentration (IC50) of the Compounds Against Tumor Cells: IC50 values of the compounds of the present disclosure (including the compounds in Table 1, and compounds of examples 1-104) were measured using the Meilun Cell Counting Kit-8 kit from Dalian Meilun Biotech Co., Ltd. Assay details are as follows: tumor cells were seeded in a 96-well plate at a density listed in Table 3. After 24 h, 100 μL of the inoculated cells were treated with 0.5 μl of the compounds of the present disclosure (including the compounds in Table 1, and compounds of examples 1-104) at 10 different successively decreasing concentrations (starting at the highest concentration of […]; 5-fold serial dilutions). After the cells were treated with the compounds of the present disclosure for a period of time, cell viability was measured according to the instructions provided with the CCK-8 kit. DMSO served as the negative control, and corresponding commercial immunomodulatory drug Avadomide (CC-122) was used as the positive control, both of which treated the cells using the same protocol as that of the compounds of the present disclosure. The growth inhibition of the compounds of the present disclosure on cells was plotted by Prism Graphpad software, and the IC50 values of the compounds of the present disclosure were calculated therefrom. [table] We tested the activities of the compounds of the present invention (including the compounds in Table 1 and Examples 1-104 compounds) in tumor cells through a dose-dependent manner. The cells were treated with the compounds of the present invention at 10 different successively decreasing concentrations (starting at the highest concentration of 10 μM; 5-fold serial dilutions) for 72 h or 96 h, and then the cell viability determination was performed in accordance with CCK-8 reagent operating instructions.

[2] = biological target: human Cereblon WT GST-tagged protein (Homo sapiens (Human), UniProt Q96SW2); test: CRBN-binding affinity, CEREBLON BINDING kit (HTRF); conditions: HTRF inhibitory activity, binding to CRBN
Sequence of human Cereblon WT GST-tagged protein (Q96SW2 whole entry): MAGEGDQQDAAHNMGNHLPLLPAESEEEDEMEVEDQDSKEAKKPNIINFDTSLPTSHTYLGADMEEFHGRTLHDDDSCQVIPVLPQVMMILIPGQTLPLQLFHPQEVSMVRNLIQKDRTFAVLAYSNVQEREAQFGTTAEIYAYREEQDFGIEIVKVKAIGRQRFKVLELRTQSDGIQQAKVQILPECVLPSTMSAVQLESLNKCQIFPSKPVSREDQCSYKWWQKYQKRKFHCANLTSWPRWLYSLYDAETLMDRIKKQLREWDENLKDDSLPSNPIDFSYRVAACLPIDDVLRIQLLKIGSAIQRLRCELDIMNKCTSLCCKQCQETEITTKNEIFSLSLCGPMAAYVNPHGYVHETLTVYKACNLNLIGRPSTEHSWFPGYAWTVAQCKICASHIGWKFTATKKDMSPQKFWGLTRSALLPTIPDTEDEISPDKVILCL
Description: Determination of CRBN-Binding Affinity of Compounds
The CEREBLON BINDING kits (specification: 10,000 tests; product number: Catalog #64BDCRBNPEH; CISBIO company) was used to determine the CRBN binding ability of the compounds to be tested through a HTRF method (homogeneous time-resolved fluorescence). The specific methods are as follows: • 1. According to the instructions of the CEREBLON BINDING kits, the compounds to be tested of the present invention and lenalidomide were serially diluted using diluent #9 (1×) solution to obtain a final concentration of 2 μM for both the tested compounds and lenalidomide solution. • 2.2.5 μL of the above 2 μM of the tested compounds and lenalidomide solution, as well as the same volume of diluent #9 (1×) solution (solvent control group, Std0) were taken and added to each well of a 96-well plate, respectively. Then, 2.5 μL of (human Cereblon WT GST-tagged protein) solution was added to each well. Finally, 5 μL of the uniformly mixed thalidomide-Red reagent and GST Eu antibody working solution were added to each of the above wells. The final concentration of the tested compounds and lenalidomide in each well is 0.5 μM. • 3. The blank control wells were sequentially added with 2.5 μL of diluent #9 (1×) solution, 2.5 μL of PROTAC binding buffer, and 5 μL of uniformly mixed thalidomide-Red reagent and GST Eu antibody working solution. • 4. After sealing and incubating the solutions in the above wells at room temperature for 3 hours, the absorbance values at emission wavelengths of 620 nm and 665 nm were detected by the HTRF method using a Spark microplate reader (V3.1 SP1).
The corresponding CRBN binding inhibition rate was calculated using the following method: […]
Note: OD 665 nmcompound is the absorbance value of each well of the compounds to be tested of the present disclosure at an emission wavelength of 665 nm.
OD 620 nmcompound is the absorbance value of each well of the compounds to be tested of the present disclosure at an emission wavelength of 620 nm.
OD 665 nmcontrol is the absorbance value of the blank control well at an emission wavelength of 665 nm.
OD 620 nmcontrol is the absorbance value of the blank control well at an emission wavelength of 620 nm.
OD 665 nmstd0 is the absorbance value of the solvent control well at an emission wavelength of 665 nm.
OD 620 nmstd0 is the absorbance value of the solvent control well at an emission wavelength of 620 nm.

| SMILES | IC50 [1] | IC50 [2] |
| --- | --- | --- |
| Cc1nc2cccc(NCCCCNC34CC5CC(CC(C5)C3)C4)c2c(=O)n1C1CCC(=O)NC1=O (stereo not shown) [GT-01818, 3-(5-((4-(((3s,5s,7s)-adamantan-1-yl)amino)butyl)amino)-2-methyl-4-oxoquinazolin-3(4H)-yl)piperidine-2,6-dione] | 0.554 µM | – |
| Cc1nc2cccc(NCCOCCOCCNC34CC5CC(CC(C5)C3)C4)c2c(=O)n1C1CCC(=O)NC1=O (stereo not shown) [GT-02279, 3-(5-((2-(2-(2-(((1s,3s)-adamantan-1-yl)amino)ethoxy)ethoxy)ethyl)amino)-2-methyl-4-oxoquinazolin-3(4H)-yl)piperidine-2,6-dione] | 0.438 µM | – |
| Cc1nc2cccc(NCCCCCNC34CC5CC(CC(C5)C3)C4)c2c(=O)n1C1CCC(=O)NC1=O (stereo not shown) [GT-02280, 3-(5-((5-(((3s,5s,7s)-adamantan-1-yl)amino)pentyl)amino)-2-methyl-4-oxoquinazolin-3(4H)-yl)piperidine-2,6-dione] | 0.409 µM | – |
| Cc1nc2cccc(NCCCCCNC(=O)C34CC5CC(CC(C5)C3)C4)c2c(=O)n1C1CCC(=O)NC1=O (stereo not shown) [GT-02323, (3r,5r,7r)-N-(5-((3-(2,6-dioxopiperidin-3-yl)-2-methyl-4-oxo-3,4-dihydroquinazolin-5-yl)amino)pentyl)adamantane-1-carboxamide] | 0.652 µM | – |
| Cc1nc2cccc(NCCCCCNC3C4CC5CC(C4)CC3C5)c2c(=O)n1C1CCC(=O)NC1=O (stereo not shown) [GT-02393, 3-(5-((5-(((1r,3r,5r,7r)-adamantan-2-yl)amino)pentyl)amino)-2-methyl-4-oxoquinazolin-3(4H)-yl)piperidine-2,6-dione] | 0.458 µM | 0.42 µM |
| Cc1nc2cccc(NCCCCCCNC34CC5CC(CC3C5)C4)c2c(=O)n1C1CCC(=O)NC1=O [GT-02494, 3-(5-((6-(((2R,3as,5S,6as)-hexahydro-2,5-methanopentalen-3a(1H)-yl)amino)hexyl)amino)-2-methyl-4-oxoquinazolin-3(4H)-yl)piperidine-2,6-dione] | 0.184 µM | 0.46 µM |
| Cc1nc2cccc(NCCCCCNC34CC5CC(CC3C5)C4)c2c(=O)n1C1CCC(=O)NC1=O [GT-02496, 3-(5-((5-(((2R,3as,5S,6as)-hexahydro-2,5-methanopentalen-3a(1H)-yl)amino)pentyl)amino)-2-methyl-4-oxoquinazolin-3(4H)-yl)piperidine-2,6-dione] | 0.474 µM | 0.42 µM |
| Cc1nc2cccc(NCCCCCCCN3CC4CC4C3)c2c(=O)n1C1CCC(=O)NC1=O (stereo not shown) [GT-02772, 3-(5-((7-(3-azabicyclo[3.1.0]hexan-3-yl)heptyl)amino)-2-methyl-4-oxoquinazolin-3(4H)-yl)piperidine-2,6-dione] | 0.448 µM | – |
| Cc1nc2cccc(NCCCCCCCN3CCC4(CC3)CC(F)(F)C4)c2c(=O)n1C1CCC(=O)NC1=O (stereo not shown) [GT-02773, 3-(5-((7-(2,2-difluoro-7-azaspiro[3.5]nonan-7-yl)heptyl)amino)-2-methyl-4-oxoquinazolin-3(4H)-yl)piperidine-2,6-dione] | 0.44 µM | 2.8 µM |
| Cc1nc2cccc(NCCCCCCCNC34CCC(F)(CC3)CC4)c2c(=O)n1C1CCC(=O)NC1=O (stereo not shown) [GT-02774, 3-(5-((7-((4-fluorobicyclo[2.2.2]octan-1-yl)amino)heptyl)amino)-2-methyl-4-oxoquinazolin-3(4H)-yl)piperidine-2,6-dione] | 0.102 µM | 2.61 µM |
| Cc1nc2cccc(CCCCCCCCNC34CC5CC(CC(C5)C3)C4)c2c(=O)n1C1CCC(=O)NC1=O (stereo not shown) [GT-02797, 3-(5-(8-(((1s,3s)-adamantan-1-yl)amino)octyl)-2-methyl-4-oxoquinazolin-3(4H)-yl)piperidine-2,6-dione] | 0.311 µM | 0.18 µM |
| Cc1nc2cccc(CCCCCCCCN3CC4CC(C3)O4)c2c(=O)n1C1CCC(=O)NC1=O (stereo not shown) [GT-02800, 3-(5-(8-(6-oxa-3-azabicyclo[3.1.1]heptan-3-yl)octyl)-2-methyl-4-oxoquinazolin-3(4H)-yl)piperidine-2,6-dione] | – | 3.4 µM |
| Cc1nc2cccc(CN3CCN(CC45CC6CC(CC(C6)C4)C5)CC3)c2c(=O)n1C1CCC(=O)NC1=O (stereo not shown) [GT-03227, 3-(5-((4-(((3r,5r,7r)-adamantan-1-yl)methyl)piperazin-1-yl)methyl)-2-methyl-4-oxoquinazolin-3(4H)-yl)piperidine-2,6-dione] | – | 2.24 µM |
| Cc1nc2cccc(CN3CCNCC3)c2c(=O)n1C1CCC(=O)NC1=O (stereo not shown) [GT-03228, 3-(2-methyl-4-oxo-5-(piperazin-1-ylmethyl)quinazolin-3(4H)-yl)piperidine-2,6-dione] | – | 1.84 µM |
| Cc1nc2cccc(CN3CCN(Cc4ccc(C56CC7CC(CC(C7)C5)C6)cc4)CC3)c2c(=O)n1C1CCC(=O)NC1=O (stereo not shown) [GT-03230, 3-(5-((4-(4-((3r,5r,7r)-adamantan-1-yl)benzyl)piperazin-1-yl)methyl)-2-methyl-4-oxoquinazolin-3(4H)-yl)piperidine-2,6-dione] | – | 2.75 µM |
| Cc1nc2cccc(C#CCN3CCN(Cc4ccc(C56CC7CC(CC(C7)C5)C6)cc4)CC3)c2c(=O)n1C1CCC(=O)NC1=O (stereo not shown) [GT-03233, 3-(5-(3-(4-(4-((3r,5r,7r)-adamantan-1-yl)benzyl)piperazin-1-yl)prop-1-yn-1-yl)-2-methyl-4-oxoquinazolin-3(4H)-yl)piperidine-2,6-dione] | – | 2.24 µM |
| Cc1nc2cccc(SCCN3CCN(CC45CC6CC(CC(C6)C4)C5)CC3)c2c(=O)n1C1CCC(=O)NC1=O (stereo not shown) [GT-03259, 3-(5-((2-(4-(((3r,5r,7r)-adamantan-1-yl)methyl)piperazin-1-yl)ethyl)thio)-2-methyl-4-oxoquinazolin-3(4H)-yl)piperidine-2,6-dione] | – | 2.15 µM |
| Cc1nc2cccc(CN3CCN(CCC45CC6CC(CC(C6)C4)C5)CC3)c2c(=O)n1C1CCC(=O)NC1=O (stereo not shown) [GT-03261, 3-(5-((4-(2-((3r,5r,7r)-adamantan-1-yl)ethyl)piperazin-1-yl)methyl)-2-methyl-4-oxoquinazolin-3(4H)-yl)piperidine-2,6-dione] | – | 1 µM |
| Cc1nc2cccc(C#CCN3CCN(CCC45CC6CC(CC(C6)C4)C5)CC3)c2c(=O)n1C1CCC(=O)NC1=O (stereo not shown) [GT-03262, 3-(5-(3-(4-(2-((1s,3s)-adamantan-1-yl)ethyl)piperazin-1-yl)prop-1-yn-1-yl)-2-methyl-4-oxoquinazolin-3(4H)-yl)piperidine-2,6-dione] | – | 1 µM |
| Cc1nc2cccc(SCCN3CCN(Cc4ccc(C56CC7CC(CC(C7)C5)C6)cc4)CC3)c2c(=O)n1C1CCC(=O)NC1=O (stereo not shown) [GT-03315, 3-(5-((2-(4-(4-((1s,3s)-adamantan-1-yl)benzyl)piperazin-1-yl)ethyl)thio)-2-methyl-4-oxoquinazolin-3(4H)-yl)piperidine-2,6-dione] | – | 1.98 µM |
| Cc1nc2cccc(CN3CCN(C(=O)C45CC6CC(CC(C6)C4)C5)CC3)c2c(=O)n1C1CCC(=O)NC1=O (stereo not shown) [GT-03317, 3-(5-((4-((1s,3s)-adamantane-1-carbonyl)piperazin-1-yl)methyl)-2-methyl-4-oxoquinazolin-3(4H)-yl)piperidine-2,6-dione] | – | 3.58 µM |
| Cc1nc2cccc(N3C4CC3CN(CCC35CC6CC(CC(C6)C3)C5)C4)c2c(=O)n1C1CCC(=O)NC1=O (stereo not shown) [GT-04231, 3-(5-(3-(2-((3r,5r,7r)-adamantan-1-yl)ethyl)-3,6-diazabicyclo[3.1.1]heptan-6-yl)-2-methyl-4-oxoquinazolin-3(4H)-yl)piperidine-2,6-dione] | – | 3.24 µM |
